Measured values published in publication PMC3509570, “Bioavailability and Brain-Targeting of Geniposide in Gardenia-Borneol Co-Compound by Different Administration Routes in Mice” (International Journal of Molecular Sciences, 2012).
“And” between values parts separate entries of the source, which are not always exact repeats. Identical values can stand only once. Like-named read-outs stand apart in the source and are kept apart here.

What was measured:
[1] = Plasma pharmacokinetics of Ge in mice after i.v., i.n. and i.g. administration of Gardenia-Borneol co-compound; format: in vivo; conditions: for bioavailability / Cmax / AUC(0-t) / MRT last / Tmax: mouse; for bioavailability: read-out: F (absolute bioavailability); for Cmax / AUC(0-t) / MRT last / Tmax: 18 mg/kg gardenia extract + 18 mg/kg borneol; for AUC(0-t): read-out: AUC0–120 (converted); for MRT last: read-out: MRT0–120 (converted)
Description: Non-compartmental analysis of pharmacokinetic data was performed by Kinetica 4.4 software. The absolute bioavailability was F, F = AUCblood (i.n./i.g.)/AUCblood (i.v.) × 100%.
(§1) The separation was carried out using a Diamonsil C18 column ([…], i.d., 5.0 μm) under the following chromatographic conditions: column temperature, 25 °C; sample injection volume, 20 μL; flow rate, 1.0 mL/min; detection wavelength, 238 nm; and mobile phase, acetonitrile-water(14:86).
(§2) 1% (v/v) of Tween-80 and 20% (v/v) ethanol were dissolved in physiological saline and used as the solvent for drugs. 1.2 g of borneol fine powder and 1.2 g gardenia extract were dissolved into 10 mL solvent, named as co-compound nasal drops. Dilute 0.3 mL of nasal drops precisely with 1% Tween 80-normal saline solution into 10 mL, filtrate by 0.22 μm filter, named as co-compound injection. Dilute 0.3 mL of nasal drops precisely with 1% Tween 80-normal saline solution into 10 mL, named as co-compound intragastric solution.
(§3) 120 mice were divided into 3 groups (A, B, C), equally and randomly, 40 for each group. Group A was injected 0.1 mL co-compound injection via the tail vein. Group B was treated 3 μL nasal drops with a soft PE polyethylene tube after anesthesia by ether steam. Group C was treated 0.1 mL co-compound intragastric solution. The doses chosen for the mice were 18mg/kg·d (borneol and gardenia extract, respectively), 3 times based on the doses for human beings. The blood samples were collected into heparinized tubes by pricking the eyeball. Then, mice were killed by decollation. The corresponding brains were also collected at 1, 3, 5, 10, 30, 60, 90 and 120 min after drug administration. The brains were accurately weighed, and plasma was obtained after centrifugation. The sample processing and determination were immediately made when plasma and brain tissue were obtained.
Plasma sample (100 μL) was placed into a centrifuge tube. To precipitate proteins in the sample, 300 μL acetonitrile was added and vortexed for 1 min. After centrifugation at 10,000 rpm for 10 min, supernatant was removed and evaporated under air stream in a water bath at 60 °C. The residue was dissolved in 100 μL of methanol and vortexed for 30 s, centrifuged at 10,000 rpm for 10 min. 20 μL of supernatant was injected into the HPLC system for analysis.

[2] = Brain pharmacokinetics and brain targeting of Ge in mice after i.v., i.n. and i.g. administration of Gardenia-Borneol co-compound; format: in vivo; conditions: for Kp / MRT last / Cmax / Tmax / AUC(0-t): mouse; for Kp: read-out: Te (brain/blood drug ratio); for MRT last / Cmax / Tmax / AUC0–120 / AUC(0-t): brain; for Cmax: 18 mg/kg gardenia extract + 18 mg/kg borneol; for AUC(0-t): read-out: AUC0–120 (converted)
Description: The relative brain targeted coefficient was Re, Re = AUCbrain (i.n./i.g.)/AUCbrain (i.v.) × 100%. The brain/blood drug ratio was Te, Te = AUCbrain/AUCblood × 100%. So the drug target index was DTI, DTI = Te(i.n. /i.g.)/Te(i.v). […] AUC0–120 was 37270.5 ± 4160.6, 32413.6 ± 4573.9 and 6440.1 ± 863.7 […] for i.v., i.n. and i.g., respectively.
as §1, §2, §3
The brains were washed by normal saline to remove excess surface blood and were dried by filter paper. The bloodless brains were homogenized after mixing with normal saline solution 1.5 times to the weight. After centrifugation at 12,000 rpm for 5 min, 600 μL methanol (the brain homogenate was 300 μL) was added in the supernatant to precipitate proteins in the sample. After being vortexed for 1 min, the solution was centrifuged at 12,000 rpm for 5 min. Then, supernatant was removed and evaporated under air stream in a water bath at 60 °C. The residue was dissolved in 100 μL of methanol and vortexed for 30 s, centrifuged at 12,000 rpm for 5 min. 20 μL aliquot supernatant was injected into the HPLC system for analysis.

[3] = octanol/water system; cited from earlier work
[4] = cited from earlier work
[5] = inhaled or intranasal, plasma, i.n.
[6] = ICR, in vivo, po, 18 mg/kg, i.g.
[7] = ICR, inhaled or intranasal, 18 mg/kg, i.n.

For `COC(=O)C1=CO[C@@H](O[C@@H]2O[C@H](CO)[C@@H](O)[C@H](O)[C@H]2O)[C@@H]2C(CO)=CC[C@H]12` [Ge, geniposide], the “Cmax in plasma relative to i.v.” value ([1]; i.g. vs i.v.) was 1/20, the “Cmax in plasma relative to i.v.” value ([1]; i.n. vs i.v.) was “up to 1/2” and the bioavailability ([1]; in vivo, 18 mg/kg, i.g. vs i.v.) was 28.8%. For the same compound, the bioavailability ([1]; in vivo, 18 mg/kg, i.v. (reference), F = AUCblood(i.n./i.g.)/AUCblood(i.v.) × 100%) was 100%, the Cmax ([1]; in vivo, iv, plasma, i.v.) was 42400 ± 6270 ng/mL and the AUC(0-t) ([1]; in vivo, iv, plasma, i.v.) was 5410 ng·h/mL. It also gave an MRT last ([1]; in vivo, iv, plasma, i.v.) of 15 min, a Tmax ([1]; in vivo, po, 18 mg/kg, plasma, i.g.) of ~30 min and a Cmax ([1]; in vivo, po, plasma, i.g.) of 1910 ± 327 ng/mL. The AUC(0-t) ([1]; in vivo, po, plasma, i.g.) was 1560 ng·h/mL, the MRT last ([1]; in vivo, po, plasma, i.g.) was 42 min and the Cmax [1, 5] was 21900 ± 5400 ng/mL. The Tmax [1, 5] was 1 min, the AUC(0-t) [1, 5] was 4620 ng·h/mL and the MRT last [1, 5] was 31.7 min. It also gave a bioavailability ([1]; plasma, other: i.n. (nasal drops), 18 mg/kg, i.n. vs i.v.) of 85.4%, a Kp ([2]; ICR, in vivo, i.g.) of 0.0689 and a Kp ([2]; ICR, in vivo, i.n.) of 0.117. It also gave an MRT last ([2]; ICR, in vivo, iv, 18 mg/kg) of 48.3 min, a Kp ([2]; ICR, in vivo, iv, Te = AUCbrain/AUCblood × 100%) of 0.115 and a Cmax ([2]; ICR, in vivo, iv, i.v.) of 1480 ± 145 ng/g. It also gave an MRT last [2, 6] of 60 min, a Tmax [2, 6] of 60 min and a Cmax ([2]; ICR, in vivo, po, i.g.) of 76.2 ± 22.1 ng/g. The MRT last [2, 7] was 51.2 min, the Tmax [2, 7] was 3 min and the Cmax ([2]; ICR, inhaled or intranasal, i.n.) was 747 ± 175 ng/g. For the same compound, the “AUC0–120” value ([2]; i.g.) was 6440.1 ± 863.7 ng·min/g, the “AUC0–120” value ([2]; i.n.) was 32413.6 ± 4573.9 ng·min/g and the “AUC0–120” value ([2]; i.v.) was 37270.5 ± 4160.6 ng·min/g. For the same compound, the “Re (relative brain targeted coefficient)” value ([2]; i.g. vs i.v.) was 17.28% and 17.28 ^** %, the “brain peak concentration compared to the i.v. group” value ([2]; i.g. vs i.v.) was 1/20 and the “DTI (drug target index)” value ([2]; i.n. vs i.v.) was 1.02. The “Re (relative brain targeted coefficient)” value ([2]; i.n. vs i.v.) was 86.97%, the “brain peak concentration compared to the i.v. group” value ([2]; i.n. vs i.v.) was “up to 1/2” and the “DTI (drug target index)” value ([2]; i.v. (reference), DTI = Te(i.n./i.g.)/Te(i.v.)) was 1. The “Re (relative brain targeted coefficient)” value ([2]; i.v. (reference), Re = AUCbrain(i.n./i.g.)/AUCbrain(i.v.) × 100%) was 100%, the AUC(0-t) ([2]; in vivo, inhaled or intranasal, 18 mg/kg, i.n.) was 540000 ng·h/mL and the AUC(0-t) ([2]; in vivo, iv, 18 mg/kg, i.v.) was 621000 ng·h/mL. For the same compound, the AUC(0-t) ([2]; in vivo, po, 18 mg/kg, i.g.) was 107000 ng·h/mL, the Tmax ([2]; in vivo, po, i.g.) was ~60 min and the log p [3] was −0.97. The “intranasal absorption coefficient (K)” value ([4]; Ge alone) was 0.061 h⁻¹ and the “intranasal absorption coefficient (K)” value ([4]; Ge in Gardenia-Borneol co-compound) was 0.11 h⁻¹.
